Data reported in paper PMC5141568 (ACS Medicinal Chemistry Letters, 2015).
Entries after “also recorded” stand apart in the source; their conditions may differ.

The compounds below were run against T1, Naegleria Tet1 (NgTet1) (Naegleria gruberi, UniProt D2W6T1) (assay: FP competitive binding assay). Conditions: 2.5 and 1.25 mM.
T1 sequence (D2W6T1 1-321): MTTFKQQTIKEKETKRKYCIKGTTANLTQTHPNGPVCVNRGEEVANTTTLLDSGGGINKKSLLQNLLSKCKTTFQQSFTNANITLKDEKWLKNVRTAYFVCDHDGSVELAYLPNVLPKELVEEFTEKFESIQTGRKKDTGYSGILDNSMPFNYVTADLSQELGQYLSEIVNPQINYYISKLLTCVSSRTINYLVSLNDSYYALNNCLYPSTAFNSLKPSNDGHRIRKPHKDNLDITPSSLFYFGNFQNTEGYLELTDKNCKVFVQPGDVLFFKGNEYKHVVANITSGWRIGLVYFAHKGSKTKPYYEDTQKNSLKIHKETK
For `O=C(O)CC[C@@H](O)C(=O)O` [compound 7, D-2-hydroxyglutaric acid], the “inhibition at the highest concentrations tested” value was “very slight inhibition”.

Same assay, conditions: at the concentrations tested (up to 5.0 mM for 8 and 9)
In the case of `O=C(O)CCC(=O)C(=O)O` [compound 4, α-ketoglutarate], the “competitive displacement of 3 from NgTet1” value (“competitive displacement” below) is reported as “showed the ability to competitively displace 3”. For `O=C(O)CNC(=O)C(=O)O` [compound 5, N-oxalyl glycine], the “competitive displacement” value was “showed the ability to competitively displace 3”. `O=C(O)c1ccnc(C(=O)O)c1` [compound 6, pyridine 2,4-dicarboxylic acid] was tested, and the “competitive displacement” value was “showed the ability to competitively displace 3”. With `Cc1cn([C@H]2C[C@H](O)[C@@H](CO)O2)c(=O)nc1N` [compound 8, 5-methyl-2'-deoxycytidine] the “competitive displacement” value was “Neither 5mC (8) nor 5hmC (9) showed competitive binding; also recorded: unable to competitively displace 3”. `Nc1nc(=O)n([C@H]2C[C@H](O)[C@@H](CO)O2)cc1CO` [compound 9, 2'-deoxy-5-(hydroxymethyl)cytidine] was tested, and the “competitive displacement” value was “Neither 5mC (8) nor 5hmC (9) showed competitive binding; also recorded: unable to competitively displace 3”.
